Measurements taken from patent publication US20220031596A1, “ANTI-AGING AGENT AND ANTI-AGING METHOD” (priority 2018, published 2022).

Key:
Assay type in all cases: in vivo, human
[1] = system: melatonin concentration in the plasma; assay: Evaluation of melatonin secretion promoting effect (plasma melatonin, 24-week oral ingestion); details: for melatonin concentration in the plasma, 0 weeks (before ingestion): baseline; for melatonin concentration in the plasma, 0 weeks (before ingestion) / melatonin concentration in the plasma, 24 weeks (after ingestion) / melatonin concentration in the plasma, Change rate (24 weeks - 0 weeks): mean±SD
Procedure: In order to confirm a change in the melatonin quantity before and after ingestion of the nicotinamide mononucleotide, a test was conducted on healthy males and females aged 50 to 70 years.
As a sample of Working Example 1, a capsule formulation containing the nicotinamide mononucleotide and starch (100 mg (low dose) and 200 mg (high dose) of the nicotinamide mononucleotide in 4 capsules) (manufactured by SHINKOWA PHARMACEUTICAL Co., Ltd.) was used.
(§1) Each group consisting of five healthy males and females aged 50 to 70 years in an unbiased age group ingested the above low dose capsule formulation once a day by 4 capsules for 24 weeks (total 10 subjects, a low dose group: 100 mg/daily ingestion). On the other hand, each group consisting of five healthy males and females aged 50 to 70 years in the unbiased age group ingested the above high dose capsule formulation once a day by 4 capsules for 24 weeks (total 10 subjects, a high dose group: 200 mg/daily ingestion). In order to conduct appropriate evaluations, those who had been regularly using medical products for chronic diseases, those who had been consuming healthy foods that may affect clinical research, and those who were currently participating in other clinical researches or clinical trials, or had participated in other clinical researches or clinical trials within the last three months were excluded from the subject for the evaluation. The capsule formulations were ingested at 10 am (between meals and fasting state) together with water or lukewarm water (oral administration).
Measurement of the melatonin quantity in plasma was conducted by requesting the measurement to an external public organization according to a usual method. FIGS. 2a to 2c indicates transitions of the melatonin concentration (pg/ml) in the plasma for 24 weeks. FIG. 2a represents the transitions of the whole subjects; FIG. 2b represents the transitions of the male subjects; FIG. 2c represents the transitions of the female subjects. FIGS. 3a to 3c indicates change rates (%) of the blood melatonin concentration up to 24 weeks when the nicotinamide mononucleotide was orally administered to the subjects for 24 weeks. FIG. 3a represents the change rates of the whole subjects; FIG. 3b represents the change rates of the male subjects; FIG. 3c represents the change rates of the female subjects. Further, Table 1 indicates the numerical values of the melatonin concentration (pg/ml) in the plasma before the ingestion of the nicotinamide mononucleotide (0 weeks) and after the ingestion of the nicotinamide mononucleotide (24 weeks). In addition, the numerical values represent mean values±standard deviation.

[2] = system: mRNA expression level of the sirtuin gene Sirt1; assay: Evaluation of sirtuin 1 (Sirt1) secretion promoting effect (blood Sirt1 mRNA by real-time PCR, 24-week oral ingestion); details: for mRNA expression level of the sirtuin gene Sirt1 (relative to that of GAPDH), 0 weeks (before ingestion) / mRNA expression level of the sirtuin gene Sirt1 (relative to that of GAPDH), 24 weeks (after ingestion) / mRNA expression level of the sirtuin gene Sirt1 (relative to that of GAPDH), Change rate (24 weeks - 0 weeks): blood, High Dose Group (200 mg/daily, oral), mean±SD; for mRNA expression level of the sirtuin gene Sirt1 (relative to that of GAPDH), 0 weeks (before ingestion): baseline
Procedure: In order to confirm a change in the Sirt1 quantity before and after ingestion of the nicotinamide mononucleotide, a test was conducted on healthy males and females aged 50 to 70 years.
As a sample of Working Example 13, a capsule formulation containing the nicotinamide mononucleotide and starch (200 mg of the nicotinamide mononucleotide in 4 capsules) (manufactured by SHINKOWA PHARMACEUTICAL Co., Ltd.) was used.
as §1, with “above” for “above low dose capsule formulation once a day by 4 capsules for 24 weeks (total 10 subjects, a low dose group: 100 mg/daily ingestion). On the other hand, each group consisting of five healthy males and females aged 50 to 70 years in the unbiased age group ingested the above”, “subjects,” for “subjects, a high dose group:”, “trials” for “trials,”
Measurement of the Sirt1 quantity in the blood was conducted by requesting the measurement to an external public organization according to a usual method. The mRNA expression level of the sirtuin gene Sirt1 was analyzed by a real-time PCR method with the blood collected before the ingestion of the nicotinamide mononucleotide (0 weeks) and after the ingestion of the nicotinamide mononucleotide (24 weeks). Note that, in this analysis, cDNA was purified on the day when the blood sample was collected and stored at −80° C. until all samples were prepared. The samples were then subjected to the real-time PCR method at the same time. The expression level was normalized using GAPDH as a reference gene. Table 12 indicates the numerical values of the mRNA expression level of the sirtuin gene Sirt1 (relative to that of GAPDH). Note that the numerical values represent mean values±standard deviation.

[3] = system: calcitonin concentration in the plasma; assay: Evaluation of calcitonin secretion promoting effect (plasma calcitonin, 24-week oral ingestion); details: for calcitonin concentration in the plasma, 0 weeks (before ingestion) / calcitonin concentration in the plasma, 24 weeks (after ingestion) / calcitonin concentration in the plasma, Change rate (24 weeks - 0 weeks): High Dose Group (200 mg/daily, oral), mean±SD; for calcitonin concentration in the plasma, 0 weeks (before ingestion): baseline
Procedure: In order to confirm a change in the calcitonin quantity before and after ingestion of the nicotinamide mononucleotide, a test was conducted on healthy males and females aged 50 to 70 years.
As a sample of Working Example 12, a capsule formulation containing the nicotinamide mononucleotide and starch (200 mg of the nicotinamide mononucleotide in 4 capsules) (manufactured by SHINKOWA PHARMACEUTICAL Co., Ltd.) was used.
as §1, with “above” for “above low dose capsule formulation once a day by 4 capsules for 24 weeks (total 10 subjects, a low dose group: 100 mg/daily ingestion). On the other hand, each group consisting of five healthy males and females aged 50 to 70 years in the unbiased age group ingested the above”, “subjects,” for “subjects, a high dose group:”, “trials” for “trials,”
Measurement of the calcitonin quantity in the plasma was conducted by requesting the measurement to an external public organization according to a usual method. FIGS. 24a to 24c indicate transitions of the calcitonin concentration (pg/ml) in the plasma for 24 weeks. FIG. 24a represents the transitions of the whole subjects; FIG. 24b represents the transitions of the male subjects; FIG. 24c represents the transitions of the female subjects. Further, FIGS. 25a to 25c indicate change rates (%) of the blood calcitonin concentration up to 24 weeks when the nicotinamide mononucleotide was orally administered to the subjects for 24 weeks. FIG. 25a represents the change rates of the whole subjects; FIG. 25b represents the change rates of the male subjects; FIG. 25c represents the change rates of the female subjects. Further, Table 11 indicates the numerical values of the calcitonin concentration (pg/ml) in the plasma before the ingestion of the nicotinamide mononucleotide (0 weeks) and after the ingestion of the nicotinamide mononucleotide (24 weeks). Note that the numerical values represent mean values±standard deviation.

[4] = Female, High Dose Group (200 mg/daily, oral)
[5] = Female, Low Dose Group (100 mg/daily, oral)
[6] = Male, High Dose Group (200 mg/daily, oral)
[7] = Male, Low Dose Group (100 mg/daily, oral)
[8] = Whole Subjects, High Dose Group (200 mg/daily, oral)
[9] = Whole Subjects, Low Dose Group (100 mg/daily, oral)

NC(=O)c1ccc[n+]([C@@H]2O[C@H](COP(=O)([O-])O)[C@@H](O)[C@H]2O)c1 [nicotinamide mononucleotide]
melatonin concentration in the plasma, 0 weeks (before ingestion) [1, 4]: 5.77 ± 3.00 pg/mL
melatonin concentration in the plasma, 24 weeks (after ingestion) [1, 4]: 11.81 ± 8.17 pg/mL
melatonin concentration in the plasma, Change rate (24 weeks - 0 weeks) [1, 4]: 6.03 ± 5.90 pg/mL
melatonin concentration in the plasma, 0 weeks (before ingestion) [1, 5]: 7.15 ± 4.51 pg/mL
melatonin concentration in the plasma, 24 weeks (after ingestion) [1, 5]: 9.37 ± 4.85 pg/mL
melatonin concentration in the plasma, Change rate (24 weeks - 0 weeks) [1, 5]: 2.21 ± 3.19 pg/mL
melatonin concentration in the plasma, 0 weeks (before ingestion) [1, 6]: 3.82 ± 1.41 pg/mL
melatonin concentration in the plasma, 24 weeks (after ingestion) [1, 6]: 6.68 ± 4.04 pg/mL
melatonin concentration in the plasma, Change rate (24 weeks - 0 weeks) [1, 6]: 2.86 ± 3.10 pg/mL
melatonin concentration in the plasma, 0 weeks (before ingestion) [1, 7]: 2.76 ± 1.71 pg/mL
melatonin concentration in the plasma, 24 weeks (after ingestion) [1, 7]: 6.20 ± 3.60 pg/mL
melatonin concentration in the plasma, Change rate (24 weeks - 0 weeks) [1, 7]: 3.44 ± 3.57 pg/mL
melatonin concentration in the plasma, 0 weeks (before ingestion) [1, 8]: 4.80 ± 2.44 pg/mL
melatonin concentration in the plasma, Change rate (24 weeks - 0 weeks) [1, 8]: 4.45 ± 4.75 pg/mL
melatonin concentration in the plasma, 0 weeks (before ingestion) [1, 9]: 4.96 ± 3.96 pg/mL
melatonin concentration in the plasma, 24 weeks (after ingestion) [1, 9]: 7.78 ± 4.36 pg/mL
melatonin concentration in the plasma, Change rate (24 weeks - 0 weeks) [1, 9]: 2.82 ± 3.26 pg/mL
melatonin concentrations in the plasma compared to before ingestion, statistical significance ([1]; as a whole, both the low dose group and the high dose group, p<0.05): a significant difference was observed
melatonin concentrations in plasma, effect of ingestion (in words) ([1]; oral, 100 or 200 mg/daily, 24 weeks, FIGS. 2a-2c, 3a-3c): increased
mRNA expression level of the sirtuin gene Sirt1 (relative to that of GAPDH), 0 weeks (before ingestion) ([2]; Female): 1.01 ± 0.17
mRNA expression level of the sirtuin gene Sirt1 (relative to that of GAPDH), 24 weeks (after ingestion) ([2]; Female): 1.72 ± 0.98
mRNA expression level of the sirtuin gene Sirt1 (relative to that of GAPDH), Change rate (24 weeks - 0 weeks) ([2]; Female): 1.70 ± 0.90
mRNA expression level of the sirtuin gene Sirt1 (relative to that of GAPDH), 0 weeks (before ingestion) ([2]; Male): 1.65 ± 0.99
mRNA expression level of the sirtuin gene Sirt1 (relative to that of GAPDH), 24 weeks (after ingestion) ([2]; Male): 3.69 ± 2.82
mRNA expression level of the sirtuin gene Sirt1 (relative to that of GAPDH), Change rate (24 weeks - 0 weeks) ([2]; Male): 4.67 ± 5.13
mRNA expression level of the sirtuin gene Sirt1 (relative to that of GAPDH), 0 weeks (before ingestion) ([2]; Whole Subjects): 1.33 ± 0.75
mRNA expression level of the sirtuin gene Sirt1 (relative to that of GAPDH), 24 weeks (after ingestion) ([2]; Whole Subjects): 2.71 ± 2.25
mRNA expression level of the sirtuin gene Sirt1 (relative to that of GAPDH), Change rate (24 weeks - 0 weeks) ([2]; Whole Subjects): 3.18 ± 3.81
expression level of Sirt1 in the blood, effect of ingestion (in words) ([2]; oral, 200 mg/daily, 24 weeks): increased
calcitonin concentration in the plasma, 0 weeks (before ingestion) ([3]; Female): 0.60 ± 0.10 pg/mL
calcitonin concentration in the plasma, 24 weeks (after ingestion) ([3]; Female): 0.71 ± 0.20 pg/mL
calcitonin concentration in the plasma, Change rate (24 weeks - 0 weeks) ([3]; Female): 0.11 ± 0.10 pg/mL
calcitonin concentration in the plasma, 0 weeks (before ingestion) ([3]; Male): 2.35 ± 1.97 pg/mL
calcitonin concentration in the plasma, 24 weeks (after ingestion) ([3]; Male): 2.44 ± 2.21 pg/mL
calcitonin concentration in the plasma, Change rate (24 weeks - 0 weeks) ([3]; Male): 0.09 ± 0.37 pg/mL
calcitonin concentration in the plasma, 0 weeks (before ingestion) ([3]; Whole Subjects): 1.48 ± 1.61 pg/mL
calcitonin concentration in the plasma, 24 weeks (after ingestion) ([3]; Whole Subjects): 1.58 ± 1.74 pg/mL
calcitonin concentration in the plasma, Change rate (24 weeks - 0 weeks) ([3]; Whole Subjects): 0.10 ± 0.25 pg/mL
calcitonin concentrations in the plasma, effect of ingestion (in words) ([3]; oral, 200 mg/daily, 24 weeks, FIGS. 24a-24c, 25a-25c): increased
